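A five-concentration, 48-hour dose response in 96-well plates underlies each endpoint, interpolated linearly between surrounding concentrations. GI50 is the concentration that inhibits growth by half.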 The source made the active and inactive calls. No stated cut-off is given here; in the data, active = GI50 up to about 1.1 µM and inactive = higher.
What was measured:
Assay in all cases: NCI-60 cell line screen, 48 h
[1] = test system: ACHN
[2] = test system: SF-268
[3] = test system: HT-29
[4] = test system: UACC-62
[5] = test system: 786-0
[6] = test system: SW-620
[7] = test system: HCC 2998
[8] = test system: HOP-92
[9] = test system: OVCAR-3
[10] = test system: EKVX
[11] = test system: KM12
[12] = test system: SK-MEL-5
[13] = test system: OVCAR-4
[14] = test system: RXF 393
[15] = test system: HL-60
[16] = test system: NCI-H522
[17] = test system: SNB-19
[18] = test system: OVCAR-8
[19] = test system: TK-10
[20] = test system: UO-31

Measured: GI50

Cc1c(N(C)C)ccc2c(=O)c3cccc(CC(=O)O)c3oc12
inactive: [1] > 100 µM | [2] > 100 µM | [3] > 100 µM | [4] > 100 µM | [5] > 100 µM | [6] > 33.3 µM | [7] > 100 µM | [8] > 64.9 µM | [9] > 100 µM | [10] > 100 µM | [11] > 100 µM | [12] > 75.3 µM | [13] > 100 µM | [14] > 100 µM | [15] 97.9 µM | [16] > 100 µM | [17] > 43.4 µM | [18] > 100 µM | [19] > 100 µM | [20] > 100 µM

Source: ChEMBL document CHEMBL1201862, “PubChem BioAssay data set” (2004)
